Test system: human peripheral-blood mononuclear cells
Experiment: Interferon γ production by peripheral-blood mononuclear cells with interleukin 2 (ELISA)
Assay type: cell-based
Conditions: lipid antigen added with interleukin 2, supernatant ELISA
Procedure: It was found out that the production amount of interferon γ increased by 2 folds or more when mycoplasma-mimic particles (GGPL-I, GGPL-III) were added as compared with administration of interleukin 2 alone using human peripheral-blood mononuclear cells. The mononuclear cells were separated from the peripheral blood of a healthy individual, and a sample in which interleukin 2 and the lipid antigen were added to the mononuclear cells, and a sample of the mononuclear cells without adding the lipid antigen were cultured, and supernatants thereof were recovered, and the amounts of interferon γ in the supernatants were measured with an enzyme antibody immune method (ELISA method).
Mononuclear cells were separated from the peripheral blood of a healthy individual. A sample in which interleukin 2 and mycoplasma-mimic particles (GGPL-I, or GGPL-III) were added to the mononuclear cells, and a sample of the mononuclear cells with no addition of the mycoplasma-mimic particles were cultured, and supernatants thereof were recovered, and the amounts of interferon γ in the supernatant were measured with an enzyme antibody immune method (ELISA method).
Mononuclear cells were separated from the peripheral blood of a healthy individual. […]

CCCCCCCCCCCCCCCC(=O)OC[C@H](CO[C@H]1O[C@H](COP(=O)(O)OCC(N)COP(=O)(O)OCC[N+](C)(C)C)[C@@H](O)[C@H](O)[C@H]1O)OC(=O)CCCCCCCCCCCCCCC (stereo partly shown) [GGPL-III]
production amount of interferon γ in comparison with no addition of the lipid antigen: remarkably increased
